Data as given in paper PMC8296708, “The pan HDAC inhibitor Givinostat improves muscle function and histological parameters in two Duchenne muscular dystrophy murine models expressing different haplotypes of the LTBP4 gene” (Skeletal Muscle, 2021).

Legend:
[1] = tested on: D2.B10 mice; assay: Grip strength test (FNmax) in D2.B10 mice; format: in vivo, mouse (D2.B10-Dmd^mdx/J)
Source text: (§1) For the efficacy studies, C57BL/10 J (Stock No: 000665) wild type (wt) and C57BL/10ScSn-Dmd^mdx/J (Stock No: 001801) 7–8-week-old male mice, DBA/2J wt (Stock No: 000671), and D2.B10-Dmd^mdx/J (Stock No: 013141) 6–7-week-old male mice were purchased from The Jackson Laboratories (Bar Harbor, Maine, USA). After 5 days of acclimatization in the animal facility, mice were randomized into different treatment groups based on their BW. C57BL/10J wt mice were assigned to the naive wt group (healthy mice that received no treatment, but were subjected to functional tests), whereas mdx mice were assigned to the following groups (9 mice/group; 4–5 mice/cage): naive mdx (mice that received no treatment, but were subjected to functional tests), vehicle (0.5% methylcellulose, p.o.), and Givinostat (0.1, 0.3, 1, 5, 10, 25, and 37.5 mg/kg, p.o.). DBA/2J mice were assigned to the naive wt group (healthy mice that received no treatment, but were subjected to functional tests), whereas D2.B10 mice were assigned to the following groups (12–13 mice/group; 4–5 mice/gage): vehicle (filtered tap water, p.o.), Givinostat (1, 5, 10, and 37.5 mg/kg, p.o.), prednisone 1 mg/kg, and Deflazacort 1 mg/kg (i.p.).
(§2) In the efficacy studies, Givinostat powder (ITF2357) was suspended in 0.5% methylcellulose (Sigma-Aldrich) and administered p.o. (by gavage) at the doses of 0.1, 0.3, 1, 5, 10, 25, and 37.5 mg/kg qdx5x15weeks (administration volume per mouse: 10 mL/kg) in mdx mice (see Additional Figure 1A). Vehicle-treated mdx mice received 0.5% methylcellulose suspension. Givinostat suspension was stored at + 4 °C, and it was freshly prepared every 7 days. Probably due to the impairment of their tongue and masticatory muscles, the oral gavage procedure turned out to be difficult to perform, and chronic treatment of D2.B10 mice by this route was considered to bear a high risk of damaging the esophagus. For this reason, Givinostat was administered in the drinking water. Givinostat was dissolved in filtered tap water and was administered in drinking water (throughout 24 h) for 105 days at the dose of 1, 5, 10, and 37.5 mg/kg/day, according to a daily estimate of water consumption of 4 ml/mouse/day. Water consumption was weekly monitored throughout the entire duration of the study weighing the bottle of each cage (maximum 4 mice per cage). Prednisone and Deflazacort powder (Sigma-Aldrich) was dissolved in 2% DMSO (Sigma-Aldrich) and diluted in sterile saline on injection days. Both drugs were administered weekly (for 15 weeks) by i.p. injection at the dose of 1 mg/kg in a volume of 10 mL/kg. Givinostat and steroid treatments started on days 7 and 9 of the experimental plan, respectively (see Additional Figure 1B). All mice were monitored daily and tolerability was evaluated on the basis of BW and clinical signs.
(§3) In both efficacy studies, the effectiveness of treatments was evaluated every week by measuring the forelimb strength by a grip strength meter (Ugo Basile SRL, Italy). BW of mdx (see Additional Figure 2) and D2.B10 mice (see Additional Figure 3) was also measured in order to normalize the absolute grip strength of each mouse with respect to its BW. The protocol provides 5 measurements for each mouse (the procedure was compliant with the standard operating procedures of TREAT–NMD Neuromuscular Network). The highest recorded value of maximal normalized strength (FNmax) obtained for each mouse at all the time points (from T0 to T15) was used for further analysis.
After taking baseline readings for behavioral assays (FNmax and distance run by the animals), mice were re-randomized based on these two parameters, also considering the previous randomization performed on their BW.
The grip strength and run to exhaustion tests were performed during the light-cycle phase, in the early hours of the morning (8:00–11:30 am). […]

[2] = tested on: D2.B10 mice; assay: Treadmill run to exhaustion test in D2.B10 mice; format: in vivo, mouse (D2.B10-Dmd^mdx/J); conditions: Deflazacort, prednisone 1 mg/kg, lower doses of Givinostat
Source text: as §1, §2
Run to exhaustion performance of mdx and D2.B10 mice was evaluated every 14 or 21 days, respectively, using a treadmill apparatus (Ugo Basile SRL, Italy). The exhaustion protocol consisted in an initially horizontal running at 5 m/min for 5 min after which the speed was increased 1 m/min every minute until exhaustion (the procedure was compliant with the standard operating procedures of TREAT–NMD Neuromuscular Network). […]
After taking baseline readings for behavioral assays (FNmax and distance run by the animals), mice were re-randomized based on these two parameters, also considering the previous randomization performed on their BW. […]

[3] = tested on: D2.B10 mice; assay: Muscle fibrosis by Sirius Red staining in D2.B10 mice; format: in vivo, mouse (D2.B10-Dmd^mdx/J)
Source text: (§4) Tibialis anterior (TA), gastrocnemius (GAS), DIA, and heart were collected from mice maintained under isoflurane anesthesia and sacrificed by cervical dislocation. These muscles were collected from C57BL/10J wt and mdx (5 mice/group) at the end of treatments and from DBA/2J wt and D2.B10 mice (5 mice/group) at two different time points to be examined by a pathologist (for more details see Additional Table 1). Due to the results obtained by the functional tests, muscles from only some treatment groups were analyzed in both DMD models (see Additional Table 1). All the collected muscles were fixed in 10% buffered formalin solution (Bio-optica, Milan, Italy) at + 4 °C for at least 48 h. After fixation, muscular samples were transversely trimmed, caged, and paraffin embedded overnight with an Automated Vacuum Tissue Processor Floor (ETP, Histo-Line Laboratories) and included in paraffin blocks. Serial transverse cross-sections (4 μm thick) were cut with a microtome (Leica RM 2255), collected onto uncoated glass slides, and stained using a standard protocol for hematoxylin and eosin (Mayer hematoxylin & Aqueous G Eosin 1%, Bio-Optica) and Sirius Red staining (Direct Red 80, Sigma-Aldrich). For the image analysis and quantitation, hematoxylin and eosin- and Sirius Red-stained slides were examined with an Olympus BX51 light microscope. From each sample, 1 to 3 random microphotographs at the magnification of × 4 and × 10 (TA, GAS and heart) or × 20 (DIA) were collected using Image-Pro Plus system. The digital images were processed by a pathologist using ImageJ software (U.S. National Institutes of Health, Bethesda, MD, USA). To quantify CSA and centralized nuclei (%) on hematoxylin and eosin-stained sections, one hundred myofibers were manually measured for each muscle/mouse using a tablet pen (Wacom Intruos) and analyzed by the ImageJ software after a linear calibration of 150 μm. The fibrotic area, corresponding to the area stained in red, was compared to the total area of the tissue section, and the results were expressed as percentage fibrosis. The % of fibrosis of muscles in the different treatment groups was expressed by averaging the three values obtained from each muscle.

[4] = tested on: D2.B10 mice; assay: Myofiber cross-sectional area (CSA) in D2.B10 mice; format: in vivo, mouse (D2.B10-Dmd^mdx/J); conditions: D2.B10 muscles, 1 mg/kg i.p. weekly
Source text: as §4
The deciles of the CSA of the animals treated with Givinostat at the different doses were plotted against the corresponding deciles of the vehicle-treated mice and a linear regression analysis was performed on natural [CSAtreated = b CSAcontrol + a] and log_transformed data [log(CSAtreated) = log(a) + b log(CSAcontrol)]. […] In case of untransformed data, this means that the effect of Givinostat treatment is additive and any decile of the CSAtreatment distribution may be derived from the control data summing up a constant quantity (S) to each fiber AREA of the control group (CSAtreated = CSAcontrol + S). In case of log_transformed data, the effect of Givinostat has to be considered as a multiplicative factor on any generic fiber of the muscle under evaluation, whose size, after the treatment, results K times larger in comparison to the control group value (CSAtreated […] = K × CSAcontrol, with K = 10^a). The S or K parameter values were then determined through an iterative estimation procedure, based on sum of squares (SSQ) minimization, directly comparing the CSA distribution observed in treated animals with that obtained summing up the S value or multiplying by K the CSA values of the control group.

[5] = Body weight of D2.B10 mice; format: in vivo, mouse (D2.B10-Dmd^mdx/J); conditions: mouse, in vivo
Description: as §2, with “Givinostat and steroid treatments started on days 7 and 9 of the experimental plan, respectively (see Additional Figure 1B).” left out
as §3, with “The protocol provides 5 measurements for each mouse (the procedure was compliant with the standard operating procedures of TREAT–NMD Neuromuscular Network).” left out

[6] = parameters: method as in PMID 15269190; conditions: mice, i.p. dosing; cited from earlier work
[7] = parameters: method as in printed; conditions: mice; ref not given; cited from earlier work
[8] = tested on: mdx mouse model; parameters: method as in PMID 21137017; conditions: i.p.; cited from earlier work

In the case of `CC(=O)OCC(=O)[C@@]12N=C(C)O[C@@H]1C[C@H]1[C@@H]3CCC4=CC(=O)C=C[C@]4(C)[C@H]3[C@@H](O)C[C@@]12C` [Deflazacort], the “Effect of steroid on FNmax in comparison” value ([1]; 1 mg/kg i.p. weekly, all the treatment period) is reported as “lower and not significantly different from prednisone”, the “Time interval of significant FNmax improvement” value ([1]; Deflazacort 1 mg/kg i.p. weekly, Givinostat 1 mg/kg) is reported as “from day 28 to day 90” and the “Effect on distance run, significance” value [2] is reported as “not statistically significant”. The “Effect of steroid on fibrosis, summary” value ([3]; 1 mg/kg i.p. weekly) was “effective only in TA”, the “Reduction of fibrosis in DIA” value ([3]; T8) was “no significant effect” and the “Reduction of fibrosis in TA” value ([3]; T8, Givinostat 37.5 mg/kg, steroids 1 mg/kg, vs vehicle) was “about 22%”. The “Effect on fibrosis in GAS” value ([3]; T16) was “No significant effect”, the “Effect of steroid on cross-sectional area and centralized nuclei” value [4] was “unable to affect cross-sectional area or the number of centralized nuclei” and the “Body weight vs vehicle-treated mice” value [5] was “no significant differences”.

For `CC(/C=C/C(=O)NO)=C\[C@@H](C)C(=O)c1ccc(N(C)C)cc1` [TSA, trichostatin A], the Half-life [6] is given as 6.3 min and the Peak plasma concentrations [6] is given as “micromolar”.

For `O=C(CCCCCCC(=O)Nc1ccccc1)NO` [Vorinostat], the Oral bioavailability [7] is given as “very poor oral bioavailability” and the “Dose of peak functional and histologic effects (bell-shaped dose-response curve)” value [8] is given as 1.2 mg/kg.
